From patent US20260217708A1, “FUSED BENZAZEPINE DERIVATIVES FOR USE IN THE TREATMENT OF CANCER AND EPILEPSY” (UCB BIOPHARMA SRL, priority 2023, published 2026) come the findings set out here.

Each structure is given as a SMILES string.

Test [1] concerns the target T1, system Xc^− (Homo sapiens, UniProt Q9UPY5).
T1 sequence (Q9UPY5 1-501): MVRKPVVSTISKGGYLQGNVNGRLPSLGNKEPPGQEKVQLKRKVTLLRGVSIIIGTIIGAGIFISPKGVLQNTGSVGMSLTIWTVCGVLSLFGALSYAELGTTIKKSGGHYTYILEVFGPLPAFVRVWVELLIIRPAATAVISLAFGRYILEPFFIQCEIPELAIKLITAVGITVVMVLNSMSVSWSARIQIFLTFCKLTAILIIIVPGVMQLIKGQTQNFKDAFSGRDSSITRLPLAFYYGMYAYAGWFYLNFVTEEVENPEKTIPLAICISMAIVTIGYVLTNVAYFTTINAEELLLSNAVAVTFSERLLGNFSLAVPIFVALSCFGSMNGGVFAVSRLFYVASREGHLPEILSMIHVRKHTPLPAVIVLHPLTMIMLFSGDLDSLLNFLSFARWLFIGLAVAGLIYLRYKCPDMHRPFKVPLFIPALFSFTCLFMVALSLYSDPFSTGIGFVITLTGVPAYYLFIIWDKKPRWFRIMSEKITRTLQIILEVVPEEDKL
T1 sequence (P08195 1-529 partner): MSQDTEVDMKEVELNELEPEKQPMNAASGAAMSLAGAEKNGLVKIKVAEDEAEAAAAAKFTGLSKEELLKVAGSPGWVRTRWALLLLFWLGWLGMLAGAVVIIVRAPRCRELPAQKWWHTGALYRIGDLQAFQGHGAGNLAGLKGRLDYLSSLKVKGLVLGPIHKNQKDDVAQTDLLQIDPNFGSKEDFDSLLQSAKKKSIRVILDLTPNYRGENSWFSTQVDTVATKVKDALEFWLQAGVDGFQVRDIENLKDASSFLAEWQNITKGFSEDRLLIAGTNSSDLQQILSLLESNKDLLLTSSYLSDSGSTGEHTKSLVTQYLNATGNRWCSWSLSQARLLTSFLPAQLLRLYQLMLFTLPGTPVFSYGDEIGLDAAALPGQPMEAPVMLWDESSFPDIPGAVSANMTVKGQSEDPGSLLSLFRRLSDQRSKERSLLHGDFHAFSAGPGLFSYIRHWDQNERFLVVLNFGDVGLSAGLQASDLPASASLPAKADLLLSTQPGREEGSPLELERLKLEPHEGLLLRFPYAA
The experiment in a line: Cystine-induced glutamate release assay. The arrangement: endogenous in cells; host or cells: H4 cells. In kind it is cell-based. The note with it: H4 cells, sodium-free HEPES buffer, 50 μM L-Cystine, 2 hours, Amplex Red glutamate readout; for IC50: read-out: pIC50 Cystine-induced glutamate release assay (converted). In short, it runs like this: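 H4 cells in sodium-free HEPES buffer (pH 7.4), 2 days after plating; glutamate release induced with 50 μM L-cystine plus compound (1% DMSO), 2 h at 37 °C. Supernatant glutamate measured by Amplex Red fluorescence; IC50/pIC50 derived between 1% DMSO and 50 μM erastin controls.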

Test [2] has as its target T1, system Xc^−. Briefly: [^14C]L-Cystine uptake assay. Format: cell-based. The arrangement: endogenous in cells; host or cells: H4 cells. The note with it: H4 cells, sodium-free HEPES buffer, 0.5 μM L-[14C]Cystine and 4.5 μM L-Cystine, 1 hour at 37° C.; for IC50: read-out: pIC50 [^14C] L-Cystine uptake assay (converted). A digest of the protocol:
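H4 cells at 5×10^4 cells/well in sodium-free HEPES buffer were preincubated 15 min with compounds (1% DMSO). Uptake of 0.5 μM [14C]L-cystine plus 4.5 μM unlabelled L-cystine ran 1 hour at 37° C on scintillating plates. IC50 was set between 1% DMSO and 50 μM Erastin controls and expressed as pIC50.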

For the molecule `Cc1cc2c(c(Cl)n1)-c1cccnc1C(F)C(=O)N2CC(=O)Nc1ccc(C(F)F)cc1` (single isomer, unassigned) [#223, Enantiomer (10R) or (10S) of 2-[3-chloro-10-fluoro-5-methyl-9-oxo-4,8,12-triazatricyclo[9.4.0.0^2,7]pentadeca-1(11),2(7),3,5,12,14-hexaen-8-yl]-N-[4-(difluoromethyl)phenyl]acetamide], the IC50 in test [1] was below 15.8 nM; in test [2] it was 15.8 to 39.8 nM.

On to `Cc1cc2c(c(Cl)n1)-c1cccnc1C(C)C(=O)N2CC(=O)Nc1ccc(Br)c(F)c1` (single isomer, unassigned) [#224, Enantiomer (10S) or (10R) of N-(4-bromo-3-fluoro-phenyl)-2-[3-chloro-5,10-dimethyl-9-oxo-4,8,12-triazatricyclo[9.4.0.0^2,7]pentadeca-1(15),2,4,6,11,13-hexaen-8-yl]acetamide], for which the IC50 in test [1] was 15.8 to 39.8 nM; in test [2] it was below 15.8 nM.

Consider `Cc1cc2c(c(Cl)n1)-c1cccnc1C(C)C(=O)N2CC(=O)Nc1ccc(C(F)(F)F)cc1F` (single isomer, unassigned) [#225, Enantiomer (10S) or (10R) of N-[2-fluoro-4-(trifluoromethyl)phenyl]-2-[3-chloro-5,10-dimethyl-9-oxo-4,8,12-triazatricyclo[9.4.0.0^2,7]pentadeca-1(11),2(7),3,5,12,14-hexaen-8-yl]acetamide], for which the IC50 in test [1] and in test [2] was below 15.8 nM each time.

`Cc1cc2c(c(Cl)n1)-c1cccnc1C(C)C(=O)N2CC(=O)Nc1cc(F)c(Cl)cc1F` (single isomer, unassigned) [#226, Enantiomer (10S) or (10R) of N-(4-chloro-2,5-difluoro-phenyl)-2-[3-chloro-5,10-dimethyl-9-oxo-4,8,12-triazatricyclo[9.4.0.0^2,7]pentadeca-1(11),2(7),3,5,12,14-hexaen-8-yl]acetamide]: the IC50 in test [1] was below 15.8 nM; in test [2] it was 15.8 to 39.8 nM.

Consider `Cc1cc2c(c(Cl)n1)-c1cccnc1C(C)C(=O)N2CC(=O)Nc1ccc(Br)cc1F` (single isomer, unassigned) [#227, Enantiomer (10S) or (10R) of N-(4-bromo-2-fluoro-phenyl)-2-[3-chloro-5,10-dimethyl-9-oxo-4,8,12-triazatricyclo[9.4.0.0^2,7]pentadeca-1(11),2(7),3,5,12,14-hexaen-8-yl]acetamide], for which the IC50 in test [1] is below 15.8 nM; in test [2], 15.8 to 39.8 nM.

Regarding `Cc1cc2c(c(Cl)n1)-c1cccnc1C(C)C(=O)N2CC(=O)Nc1ccc(C(F)(F)F)nc1` (single isomer, unassigned) [#228, Enantiomer (10S) or (10R) of 2-[3-chloro-5,10-dimethyl-9-oxo-4,8,12-triazatricyclo[9.4.0.0^2,7]pentadeca-1(15),2,4,6,11,13-hexaen-8-yl]-N-[6-(trifluoromethyl)-3-pyridyl]acetamide], the IC50 in test [1] and in test [2] was below 15.8 nM each time.

Consider `Cc1cc2c(c(Cl)n1)-c1cccnc1C(C)C(=O)N2CC(=O)Nc1ccc(C(F)(F)F)cn1` (single isomer, unassigned) [#229, Enantiomer (10S) or (10R) of 2-[3-chloro-5,10-dimethyl-9-oxo-4,8,12-triazatricyclo[9.4.0.0^2,7]pentadeca-1(15),2,4,6,11,13-hexaen-8-yl]-N-[5-(trifluoromethyl)-2-pyridyl]acetamide], for which the IC50 in test [1] is 15.8 to 39.8 nM; in test [2], 39.8 to 100 nM.

For `Cc1cc2c(c(Cl)n1)-c1cccnc1C(C)C(=O)N2CC(=O)Nc1ccc(C(F)F)nc1` (single isomer, unassigned) [#230, Enantiomer (10R) or (10S) of 2-[3-chloro-5,10-dimethyl-9-oxo-4,8,12-triazatricyclo[9.4.0.0^2,7]pentadeca-1(11),2(7),3,5,12,14-hexaen-8-yl]-N-[6-(difluoromethyl)-3-pyridyl]acetamide], the IC50 in test [1] and in test [2] was 15.8 to 39.8 nM each time.

Regarding `Cc1cc2c(c(F)n1)-c1cccnc1[C@@H](C)C(=O)N2CC(=O)Nc1ccc(C(F)F)c(F)c1` (single isomer, unassigned) [#235], the IC50 in test [1] and in test [2] was below 15.8 nM throughout.

For `Cc1cc2c(c(F)n1)-c1cccnc1[C@@H](C)C(=O)N2CC(=O)Nc1ccc(C(C)(F)F)c(F)c1` (single isomer, unassigned) [#236], the IC50 in test [1] and in test [2] was 15.8 to 39.8 nM each time.

As to `Cc1cc2c(c(F)n1)-c1cccnc1[C@@H](C)C(=O)N2CC(=O)Nc1ccc2cnc(F)cc2c1` (single isomer, unassigned) [#239], the IC50 in test [1] and in test [2] was 15.8 to 39.8 nM throughout.

With `Cc1cc2c(c(F)n1)-c1cccnc1[C@@H](C)C(=O)N2CC(=O)Nc1ccc2c(Cl)nccc2c1` (single isomer, unassigned) [#240], the IC50 in test [1] is 15.8 to 39.8 nM; in test [2], 39.8 to 100 nM.

Consider `Cc1cc2c(cn1)-c1cccnc1C(C)C(=O)N2CC(=O)Nc1ccc(C(F)F)cc1` (single isomer, unassigned) [#250, Enantiomer (10S) or (10R) of N-[4-(difluoromethyl)phenyl]-2-[5,10-dimethyl-9-oxo-4,8,12-triazatricyclo[9.4.0.0^2,l]pentadeca-1(15),2,4,6,11,13-hexaen-8-yl]acetamide], for which, in test [1], the “pIC50 Cystine-induced glutamate release assay” value is recorded as “C (about 7.40 < pIC50 ≤ about 7.80)”. The “pIC50 [^14C] L-Cystine uptake assay” value in test [2] is “B (about 7.00 < pIC50 ≤ about 7.40)”.

As for `Cc1cc2c(cn1)-c1cccnc1C(C)C(=O)N2CC(=O)Nc1ccc(Cl)c(F)c1` (single isomer, unassigned) [#251, N-(4-chloro-3-fluoro-phenyl)-2-[5,10-dimethyl-9-oxo-4,8,12-triazatricyclo[9.4.0.0^2,7]pentadeca-1(15),2,4,6,11,13-hexaen-8-yl]acetamide], the IC50 in test [1] and in test [2] was below 15.8 nM in each case.

With `Cc1cc2c(cn1)-c1cccnc1C(C)C(=O)N2CC(=O)Nc1ccc(C(F)F)c(F)c1` (single isomer, unassigned) [#252, N-[4-(difluoromethyl)-3-fluoro-phenyl]-2-[5,10-dimethyl-9-oxo-4,8,12-triazatricyclo[9.4.0.0^2,7]pentadeca-1(15),2,4,6,11,13-hexaen-8-yl]acetamide], the IC50 was below 15.8 nM in test [1] and 15.8 to 39.8 nM in test [2].

Regarding `Cc1cc2c(cn1)-c1cccnc1C(C)C(=O)N2CC(=O)Nc1ccc(F)c(Cl)c1` (single isomer, unassigned) [#253, N-(3-chloro-4-fluoro-phenyl)-2-(5,10-dimethyl-9-oxo-4,8,12-triazatricyclo[9.4.0.0^2,7]pentadeca-1(11),2(7).3,5,12,14-hexaen-8-yl)acetamide], the IC50 in test [1] and in test [2] was 39.8 to 100 nM each time.

For the molecule `Cc1cc2c(c(F)n1)-c1ccnnc1C(C)C(=O)N2CC(=O)Nc1ccc(C(F)F)cc1` (single isomer, unassigned) [#257, N-[4-(difluoromethyl)phenyl]-2-[3-fluoro-5,10-dimethyl-9-oxo-4,8,12,13-tetrazatricyclo[9.4.0.0^2,7]pentadeca-1(15),2,4,6,11,13-hexaen-8-yl]acetamide], the IC50 in test [1] and in test [2] was 39.8 to 100 nM in each case.
